Measurements published in ChEMBL document CHEMBL2311283, “Structural modifications to tetrahydropyridine-3-carboxylate esters en route to the discovery of M5-preferring muscarinic receptor orthosteric antagonists” (J Med Chem, 2013).

Columns and labels:
[1] = biological target: T1, Muscarinic acetylcholine receptor M5 (Rattus norvegicus) (UniProt P08911); test: Orthosteric antagonist activity at M5 muscarinic receptor in rat striatal slices assessed as inhibition of 10 uM oxotremorine-evoked [3H]DA release
T1 sequence (whole entry): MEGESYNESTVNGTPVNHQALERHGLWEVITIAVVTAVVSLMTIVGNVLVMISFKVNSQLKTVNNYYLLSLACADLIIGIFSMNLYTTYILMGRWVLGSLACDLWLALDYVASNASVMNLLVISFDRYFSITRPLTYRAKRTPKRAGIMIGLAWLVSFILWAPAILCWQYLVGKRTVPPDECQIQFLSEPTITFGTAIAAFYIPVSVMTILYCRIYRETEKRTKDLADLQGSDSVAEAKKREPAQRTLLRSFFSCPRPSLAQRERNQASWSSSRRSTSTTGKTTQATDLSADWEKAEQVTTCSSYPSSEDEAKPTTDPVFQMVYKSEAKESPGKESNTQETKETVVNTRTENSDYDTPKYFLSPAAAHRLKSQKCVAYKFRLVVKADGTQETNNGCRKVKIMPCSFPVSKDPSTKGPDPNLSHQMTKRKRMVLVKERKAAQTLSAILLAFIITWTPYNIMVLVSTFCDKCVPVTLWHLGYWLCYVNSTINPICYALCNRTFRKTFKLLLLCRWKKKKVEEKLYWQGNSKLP

[2] = biological target: T1, Muscarinic acetylcholine receptor M5 (Rattus norvegicus); settings: at 1 µM
[3] = biological target: T2, Muscarinic acetylcholine receptor M4 (Homo sapiens, UniProt P08173); test: Binding affinity to human M4 muscarinic receptor
T2 sequence (P08173 whole entry): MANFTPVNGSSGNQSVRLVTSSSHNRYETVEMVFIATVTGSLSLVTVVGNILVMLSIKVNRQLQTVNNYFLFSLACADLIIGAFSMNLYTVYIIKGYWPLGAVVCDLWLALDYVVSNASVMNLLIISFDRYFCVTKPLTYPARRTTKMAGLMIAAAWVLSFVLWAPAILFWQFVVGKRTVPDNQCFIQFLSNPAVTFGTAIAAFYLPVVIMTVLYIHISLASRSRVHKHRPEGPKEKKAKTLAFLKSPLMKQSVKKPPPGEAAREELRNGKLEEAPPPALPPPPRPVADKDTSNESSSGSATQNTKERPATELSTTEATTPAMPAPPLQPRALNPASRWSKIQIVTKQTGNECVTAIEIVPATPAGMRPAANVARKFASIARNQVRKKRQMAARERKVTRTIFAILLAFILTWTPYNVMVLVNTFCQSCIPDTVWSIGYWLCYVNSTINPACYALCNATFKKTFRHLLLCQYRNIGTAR

[4] = biological target: T3, Muscarinic acetylcholine receptor M3 (Homo sapiens, UniProt P20309); test: Binding affinity to human M3 muscarinic receptor
[5] = biological target: T4, Muscarinic acetylcholine receptor M2 (Homo sapiens, UniProt P08172)
T4 sequence (P08172 whole entry): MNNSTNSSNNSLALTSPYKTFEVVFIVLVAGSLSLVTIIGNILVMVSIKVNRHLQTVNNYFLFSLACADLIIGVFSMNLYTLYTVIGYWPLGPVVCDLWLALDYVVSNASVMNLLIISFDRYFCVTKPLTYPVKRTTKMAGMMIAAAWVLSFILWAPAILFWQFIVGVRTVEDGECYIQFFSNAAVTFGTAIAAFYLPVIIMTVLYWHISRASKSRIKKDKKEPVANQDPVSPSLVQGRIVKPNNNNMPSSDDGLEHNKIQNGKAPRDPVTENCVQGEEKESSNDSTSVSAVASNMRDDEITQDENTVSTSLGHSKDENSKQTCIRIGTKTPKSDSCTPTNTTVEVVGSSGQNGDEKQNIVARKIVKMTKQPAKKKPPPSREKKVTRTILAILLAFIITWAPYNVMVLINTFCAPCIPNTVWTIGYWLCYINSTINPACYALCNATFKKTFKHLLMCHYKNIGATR

[6] = species on record: Homo sapiens; test: Selectivity index, ratio of Ki for human M1 muscarinic receptor to Ki for human M5 muscarinic receptor
[7] = biological target: T5, Muscarinic acetylcholine receptor M5 (Homo sapiens, UniProt P08912); test: Displacement of [3H]NMS from human M5 muscarinic receptor expressed in CHO-K1 cells; type: cell-based
T5 sequence (P08912 whole entry): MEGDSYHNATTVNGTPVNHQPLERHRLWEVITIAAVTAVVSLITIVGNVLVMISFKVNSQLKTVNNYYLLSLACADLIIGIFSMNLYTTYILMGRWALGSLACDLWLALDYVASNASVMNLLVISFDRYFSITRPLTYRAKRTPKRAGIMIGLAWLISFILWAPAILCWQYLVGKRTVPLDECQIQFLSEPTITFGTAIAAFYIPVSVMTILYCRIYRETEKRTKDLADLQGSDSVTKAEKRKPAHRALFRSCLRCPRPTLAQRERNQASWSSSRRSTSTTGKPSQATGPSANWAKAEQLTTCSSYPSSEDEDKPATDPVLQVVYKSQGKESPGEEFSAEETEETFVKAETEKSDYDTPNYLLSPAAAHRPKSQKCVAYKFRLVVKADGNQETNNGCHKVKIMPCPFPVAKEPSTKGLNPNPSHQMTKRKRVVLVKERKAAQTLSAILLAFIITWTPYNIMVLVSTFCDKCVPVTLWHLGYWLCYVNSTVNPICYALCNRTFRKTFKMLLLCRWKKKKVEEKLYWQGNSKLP

[8] = biological target: T6, Muscarinic acetylcholine receptor M1 (Homo sapiens, UniProt P11229); test: biochemical; type: cell-based, CHO-K1
T6 sequence (P11229 whole entry): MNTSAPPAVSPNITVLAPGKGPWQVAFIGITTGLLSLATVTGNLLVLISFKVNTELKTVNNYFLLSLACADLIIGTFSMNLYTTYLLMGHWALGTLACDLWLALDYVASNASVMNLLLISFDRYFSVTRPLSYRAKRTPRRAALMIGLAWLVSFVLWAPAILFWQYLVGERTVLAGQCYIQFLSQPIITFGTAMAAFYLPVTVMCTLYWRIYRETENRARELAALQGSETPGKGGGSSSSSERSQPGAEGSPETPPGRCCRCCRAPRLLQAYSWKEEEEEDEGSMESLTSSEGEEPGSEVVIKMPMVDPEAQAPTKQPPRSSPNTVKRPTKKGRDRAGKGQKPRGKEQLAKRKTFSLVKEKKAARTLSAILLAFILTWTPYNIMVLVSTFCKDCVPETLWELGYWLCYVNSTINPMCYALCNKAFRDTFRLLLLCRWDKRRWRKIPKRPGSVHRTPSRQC

[9] = species on record: Homo sapiens; test: Selectivity index, ratio of Ki for human M4 muscarinic receptor to Ki for human M5 muscarinic receptor
[10] = species on record: Homo sapiens; test: Selectivity index, ratio of Ki for human M3 muscarinic receptor to Ki for human M5 muscarinic receptor
[11] = biological target: T2, Muscarinic acetylcholine receptor M4; test: Displacement of [3H]NMS from human M4 muscarinic receptor expressed in CHO-K1 cells; type: cell-based
[12] = biological target: T3, Muscarinic acetylcholine receptor M3; test: Displacement of [3H]NMS from human M3 muscarinic receptor expressed in CHO-K1 cells; type: cell-based
[13] = biological target: T4, Muscarinic acetylcholine receptor M2; test: Displacement of [3H]NMS from human M2 muscarinic receptor expressed in CHO-K1 cells; type: cell-based

T3 sequence (P20309 whole entry): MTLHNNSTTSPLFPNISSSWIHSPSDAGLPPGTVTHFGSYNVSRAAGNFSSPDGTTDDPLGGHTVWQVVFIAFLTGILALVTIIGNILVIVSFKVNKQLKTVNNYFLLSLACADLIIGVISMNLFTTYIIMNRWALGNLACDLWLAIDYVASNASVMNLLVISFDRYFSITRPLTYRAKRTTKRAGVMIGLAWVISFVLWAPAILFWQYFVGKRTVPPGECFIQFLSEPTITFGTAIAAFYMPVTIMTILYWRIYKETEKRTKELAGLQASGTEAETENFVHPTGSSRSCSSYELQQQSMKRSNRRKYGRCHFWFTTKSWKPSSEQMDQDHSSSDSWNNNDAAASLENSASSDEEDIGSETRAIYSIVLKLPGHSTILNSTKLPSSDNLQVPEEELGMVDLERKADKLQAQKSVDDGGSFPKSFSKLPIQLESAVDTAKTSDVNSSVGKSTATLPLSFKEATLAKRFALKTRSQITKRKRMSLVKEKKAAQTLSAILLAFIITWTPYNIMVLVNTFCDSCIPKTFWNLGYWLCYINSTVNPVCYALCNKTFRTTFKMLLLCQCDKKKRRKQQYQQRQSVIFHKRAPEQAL

With `CN1[C@@H]2C[C@@H](OC(=O)[C@H](CO)c3ccccc3)C[C@H]1[C@@H]1O[C@@H]12` the inhibition [1] was “Dose-dependent effect” and the Imax [2] was 100%.
In the case of `CCN(CC)CC1CCCCN1CC(=O)N1c2ccccc2C(=O)Nc2cccnc21` (stereo not drawn) [OTENZEPAD], the Ki [3] is reported as 0.407 µM, the Ki [4] is reported as 2.09 µM and the Ki [5] is reported as 0.081 µM.
With `COc1ccc(CCOC(=O)C2=C(c3cccc(F)c3)CCN(C)C2)cc1OC` the Ratio Ki [6] was 8.1, the Ki [7] was 3.34 µM and the Ki [8] was 27 µM. The Ratio Ki [9] was > 30, the Ratio Ki [10] was > 30 and the Ki [11] was > 100 µM. The Ki [12] was > 100 µM and the Ki [13] was > 100 µM.
